Measured values as given in patent publication US20250163055A1, “POLYMORPH OF JAK TYROSINE KINASE INHIBITOR AND PREPARATION METHOD THEREFOR” (Prime Gene Therapeutics Co., Ltd., priority 2022, published 2025).
Values after ≈ are worked out from the molar mass of the structure shown. “Also recorded” adds a separate entry of the source. Like-named read-outs stand apart in the source and are kept apart here.

Experiments:
[1] = Solubility of crystal forms in 20% propylene glycol at 32° C. over time; format: physicochemical; conditions: aqueous with cosolvent or surfactant or cyclodextrin, thermodynamic from solid
From the text: (§1) Solubility Investigation of Different Crystal Forms

[2] = Transdermal test of gel preparations (transdermal rate); format: in vitro ADME; conditions: gel preparation; receiving medium 5.0% Tween 80, pH 5.5 phosphate
From the text: Take the crystal obtained in Examples 1 or 6 and prepare it into gel preparation (the process for preparing the gel preparation can be: after stirring PEG400, propylene glycol, glycerin, ethanol and the crystal of Example 1 or 6, mix with EDTA aqueous solution, add in the swelled carbomer aqueous solution, adjust pH to be 6 with 10% triethanolamine solution, to obtain the gel). Measure respective transdermal rate (receiving medium 5.0% Tween 80, pH 5.5 phosphate).

[3] = Pharmacokinetic experiment in male SD rats (oral, intravenous, transdermal); format: in vivo, rat
Method: (§2) The solid powders of Examples 1 and 6, and the hydrogel preparations thereof were taken, and the PK values of rats administered by oral gavage and transdermal application were respectively determined. Male SD rats were divided into groups, 3 rats in each group, and were administered the compounds obtained in Examples 1 and 6 by oral gavage (oral group). administered Example 1 intravenously (intravenous group), and administered the gel preparations prepared from the compounds of Examples 1 and 6 topically to the skin (transdermal group). Animals were fasted overnight before the experiment, and the fasting time ranged from 10 hours before administration to 4 hours after administration. Blood was collected at 0.25, 0.5, 1, 2, 4, 6, 8 and 24 hours after administration in oral group and transdermal group, and at 0.083, 0.25, 0.5, 1, 2, 4, 6, 8 and 24 hours after administration in intravenous group. After being anesthetized with isoflurane using a small animal anesthesia machine, 0.3 mL of whole blood was collected through the fundus venous plexus and placed in a heparin anticoagulant tube. The blood samples were centrifuged at 4° C. and 4000 rpm for 5 min, and plasma was transferred to a centrifuge tube and placed at −80° C. until analysis. Plasma was extracted by protein precipitation method, and the extract was analyzed by LC/MS/MS. The transdermal group was administered for 24 hours and the skin at the administration site was peeled off after washing off the epidermal drug, and the drug content in the skin was analyzed by LC/MS/MS after homogenization.

[4] = Long-term (24-months) stability of crystal forms; format: physicochemical; conditions: for stability of the crystal form (result in words): long-term stability investigation, summary; for Appearance / Content / Loss on Drying / Related Substances, Most Unknown Impurity / Related Substances, Total Impurities / Crystal Form: long-term stability
From the text: The crystals prepared in examples 1, 3 and 6 were selected, and the stability of the crystal forms 1, IIa and IIb was investigated in accordance with the stability research guidelines issued by the National Medical Product Administration. The crystals were packed in pharmaceutical low-density polyethylene bags, and 24 months long-term stability was investigated.

[5] = Solubility measurement at different pH (37° C., 24 h); format: physicochemical; conditions: for solubility at 24 h: 37 °C, thermodynamic from solid, read-out: solubility, concentration
From the text: as §1

[6] = Drug concentration in the skin after topical administration to skin for 24 hours; format: in vivo, rat; conditions: topical gel
Method: as §2, with “After being anesthetized with isoflurane using a small animal anesthesia machine, 0.3 mL of whole blood was collected through the fundus venous plexus and placed in a heparin anticoagulant tube. The blood samples were centrifuged at 4° C. and 4000 rpm for 5 min, and plasma was transferred to a centrifuge tube and placed at −80° C. until analysis.” left out

[7] = Stability of crystal form III on standing (NMR); format: physicochemical
Method: 15 mg of 2-{3-[3-amino-4-(7H-pyrrolo[2,3-d]pyrimidin-4-yl)-1H-pyrazol-1-yl]-1-(isopropylsulfonyl)azetidin-3-yl}acetonitrile was added to 3 mL of dioxane, then heated to 40° C. to dissolve and the obtained solution is clear. After filtration, the solution was volatilized and crystallized at 40° C. to obtain crystal form III.

SMILES: CC(C)S(=O)(=O)N1CC(CC#N)(n2cc(-c3ncnc4[nH]ccc34)c(N)n2)C1 [Example 1, 2-{3-[3-amino-4-(7H-pyrrolo[2,3-d]pyrimidin-4-yl)-1H-pyrazol-1-yl]-1-(isopropylsulfonyl)azetidin-3-yl}acetonitrile crystal form I]
- solubility at 18 h [1]: 20.2 µg/mL (≈ 50.4 µM)
- transdermal performance / transdermal absorption (result in words) [2]: better transdermal performance
- half-life ([3]; male, SD, rat, plasma, iv, intravenous group): 2.49 h
- AUC(0-inf) ([3]; male, SD, rat, plasma, iv, intravenous group, read-out: AUC0-inf): 496 ng·h/mL
- half-life ([3]; male, SD, rat, plasma, po, oral group (gavage)): 5.33 h
- AUC(0-inf) ([3]; male, SD, rat, plasma, po, oral group (gavage), read-out: AUC0-inf): 941 ng·h/mL
- Cmax ([3]; male, SD, rat, plasma, po, oral group (gavage), read-out: Cmax): 111 ng/mL
- Tmax ([3]; male, SD, rat, plasma, po, oral group (gavage), read-out: Tmax): 2.67 h
- F ([3]; oral group (gavage)): 37%
- clearance ([3]; rat, plasma, intravenous group): 69.2 mL/min/kg
- Vd ([3]; rat, plasma, intravenous group, read-out: Vss): 4.93 L/kg
- stability of the crystal form (result in words) ([4]; listed as Crystal form I): good stability
- stability of the crystal form (result in words) ([4]; listed as crystal form I): better chemical stability
- Appearance ([4]; 0 month): Off-white powder
- Content ([4]; 0 month): 99.9%
- Loss on Drying ([4]; 0 month): 0.08%
- Related Substances, Most Unknown Impurity ([4]; 0 month): 0.17%
- Related Substances, Total Impurities ([4]; 0 month): 0.58%
- Appearance ([4]; 3 months): Off-white powder
- Content ([4]; 3 months): 100.1%
- Loss on Drying ([4]; 3 months): 0.06%
- Related Substances, Most Unknown Impurity ([4]; 3 months): 0.16%
- Related Substances, Total Impurities ([4]; 3 months): 0.57%
- Appearance ([4]; 6 months): Off-white powder
- Content ([4]; 6 months): 100.0%
- Loss on Drying ([4]; 6 months): 0.08%
- Related Substances, Most Unknown Impurity ([4]; 6 months): 0.17%
- Related Substances, Total Impurities ([4]; 6 months): 0.57%
- Appearance ([4]; 9 months): Off-white powder
- Content ([4]; 9 months): 99.8%
- Loss on Drying ([4]; 9 months): 0.11%
- Related Substances, Most Unknown Impurity ([4]; 9 months): 0.17%
- Related Substances, Total Impurities ([4]; 9 months): 0.57%
- Appearance ([4]; 12 months): Off-white powder
- Content ([4]; 12 months): 99.9%
- Loss on Drying ([4]; 12 months): 0.09%
- Related Substances, Most Unknown Impurity ([4]; 12 months): 0.17%
- Related Substances, Total Impurities ([4]; 12 months): 0.55%
- Appearance ([4]; 18 months): Off-white powder
- Content ([4]; 18 months): 99.7%
- Loss on Drying ([4]; 18 months): 0.12%
- Related Substances, Most Unknown Impurity ([4]; 18 months): 0.18%
- Related Substances, Total Impurities ([4]; 18 months): 0.62%
- Appearance ([4]; 24 months): Off-white powder
- Content ([4]; 24 months): 99.8%
- Loss on Drying ([4]; 24 months): 0.10%
- Related Substances, Most Unknown Impurity ([4]; 24 months): 0.16%
- Related Substances, Total Impurities ([4]; 24 months): 0.59%
- solubility at 24 h ([5]; pH 6.8, aqueous buffer, pH 6.8, 37° C.): 1.2 µg/mL (≈ 3 µM)
- solubility at 24 h ([5]; pH 7, aqueous buffer, pH 7.0, 37° C.): 1.3 µg/mL (≈ 3.25 µM)
- solubility at 24 h ([5]; pH 8, aqueous buffer, pH 8.0, 37° C.): 1.2 µg/mL (≈ 3 µM)
- solubility compared with crystal form IIb (result in words) ([5]; summary): higher solubility and oral bioavailability than crystal form IIb

SMILES: CC(C)S(=O)(=O)N1CC(CC#N)(n2cc(-c3ncnc4[nH]ccc34)c(N)n2)C1 [Example 3, 2-{3-[3-amino-4-(7H-pyrrolo[2,3-d]pyrimidin-4-yl)-1H-pyrazol-1-yl]-1-(isopropylsulfonyl)azetidin-3-yl}acetonitrile crystal form IIa]
- stability of the crystal form (result in words) [4]: gradually absorbed water during standing and was transformed into crystal form IIb
- Appearance ([4]; 0 month): Off-white powder
- Content ([4]; 0 month): 99.8%
- Crystal Form ([4]; 0 month): IIa
- Loss on Drying ([4]; 0 month): 0.06%
- Related Substances, Most Unknown Impurity ([4]; 0 month): 0.06%
- Related Substances, Total Impurities ([4]; 0 month): 0.28%
- Appearance ([4]; 3 months): Off-white powder
- Content ([4]; 3 months): 97.6%
- Crystal Form ([4]; 3 months): IIb
- Loss on Drying ([4]; 3 months): 0.18%
- Related Substances, Most Unknown Impurity ([4]; 3 months): 0.08%
- Related Substances, Total Impurities ([4]; 3 months): 0.28%
- Appearance ([4]; 6 months): Off-white powder
- Content ([4]; 6 months): 97.8%
- Crystal Form ([4]; 6 months): IIb
- Loss on Drying ([4]; 6 months): 0.19%
- Related Substances, Most Unknown Impurity ([4]; 6 months): 0.11%
- Related Substances, Total Impurities ([4]; 6 months): 0.27%
- Appearance ([4]; 9 months): Off-white powder
- Content ([4]; 9 months): 97.9%
- Crystal Form ([4]; 9 months): IIb
- Loss on Drying ([4]; 9 months): 0.24%
- Related Substances, Most Unknown Impurity ([4]; 9 months): 0.06%
- Related Substances, Total Impurities ([4]; 9 months): 0.24%
- Appearance ([4]; 12 months): Off-white powder
- Content ([4]; 12 months): 97.8%
- Crystal Form ([4]; 12 months): IIb
- Loss on Drying ([4]; 12 months): 0.20%
- Related Substances, Most Unknown Impurity ([4]; 12 months): 0.09%
- Related Substances, Total Impurities ([4]; 12 months): 0.22%
- Appearance ([4]; 18 months): Off-white powder
- Content ([4]; 18 months): 98.0%
- Crystal Form ([4]; 18 months): IIb
- Loss on Drying ([4]; 18 months): 0.16%
- Related Substances, Most Unknown Impurity ([4]; 18 months): 0.07%
- Related Substances, Total Impurities ([4]; 18 months): 0.26%
- Appearance ([4]; 24 months): Off-white powder
- Content ([4]; 24 months): 97.8%
- Crystal Form ([4]; 24 months): IIb
- Loss on Drying ([4]; 24 months): 0.25%
- Related Substances, Most Unknown Impurity ([4]; 24 months): 0.08%
- Related Substances, Total Impurities ([4]; 24 months): 0.29%

SMILES: CC(C)S(=O)(=O)N1CC(CC#N)(n2cc(-c3ncnc4[nH]ccc34)c(N)n2)C1 [Example 6, 2-{3-[3-amino-4-(7H-pyrrolo[2,3-d]pyrimidin-4-yl)-1H-pyrazol-1-yl]-1-(isopropylsulfonyl)azetidin-3-yl}acetonitrile crystal form IIb]
- transdermal performance / transdermal absorption (result in words) [2]: inferior to crystal form I in transdermal absorption
- drug concentration retained in animal skin relative to crystal form I [6]: up to 7 times
- AUC(0-inf) ([3]; oral group (gavage)): 537 ng·h/mL
- Cmax ([3]; oral group (gavage)): 114 ng/mL
- F ([3]; oral group (gavage)): 22%
- T1/2 ([3]; oral group (gavage)): 3.40 h
- Tmax ([3]; oral group (gavage)): 3.17 h
- stability of the crystal form (result in words) [4]: better chemical stability; also recorded: good stability
- Appearance ([4]; 0 month): Off-white
- Content ([4]; 0 month): 99.7%
- Crystal Form ([4]; 0 month): IIb
- Loss on Drying ([4]; 0 month): 0.36%
- Related Substances, Most Unknown Impurity ([4]; 0 month): 0.07%
- Related Substances, Total Impurities ([4]; 0 month): 0.38%
- Appearance ([4]; 3 months): Off-white
- Content ([4]; 3 months): 99.7%
- Crystal Form ([4]; 3 months): IIb
- Loss on Drying ([4]; 3 months): 0.36%
- Related Substances, Most Unknown Impurity ([4]; 3 months): 0.08%
- Related Substances, Total Impurities ([4]; 3 months): 0.38%
- Appearance ([4]; 6 months): Off-white
- Content ([4]; 6 months): 99.6%
- Crystal Form ([4]; 6 months): IIb
- Loss on Drying ([4]; 6 months): 0.39%
- Related Substances, Most Unknown Impurity ([4]; 6 months): 0.08%
- Related Substances, Total Impurities ([4]; 6 months): 0.37%
- Appearance ([4]; 9 months): Off-white
- Content ([4]; 9 months): 99.5%
- Crystal Form ([4]; 9 months): IIb
- Loss on Drying ([4]; 9 months): 0.34%
- Related Substances, Most Unknown Impurity ([4]; 9 months): 0.08%
- Related Substances, Total Impurities ([4]; 9 months): 0.38%
- Appearance ([4]; 12 months): Off-white
- Content ([4]; 12 months): 99.6%
- Crystal Form ([4]; 12 months): IIb
- Loss on Drying ([4]; 12 months): 0.30%
- Related Substances, Most Unknown Impurity ([4]; 12 months): 0.07%
- Related Substances, Total Impurities ([4]; 12 months): 0.37%
- Appearance ([4]; 18 months): Off-white
- Content ([4]; 18 months): 99.6%
- Crystal Form ([4]; 18 months): IIb
- Loss on Drying ([4]; 18 months): 0.31%
- Related Substances, Most Unknown Impurity ([4]; 18 months): 0.07%
- Related Substances, Total Impurities ([4]; 18 months): 0.39%
- Appearance ([4]; 24 months): Off-white
- Content ([4]; 24 months): 99.7%
- Crystal Form ([4]; 24 months): IIb
- Loss on Drying ([4]; 24 months): 0.32%
- Related Substances, Most Unknown Impurity ([4]; 24 months): 0.08%
- Related Substances, Total Impurities ([4]; 24 months): 0.39%

SMILES: CC(C)S(=O)(=O)N1CC(CC#N)(n2cc(-c3ncnc4[nH]ccc34)c(N)n2)C1 [Example 8, 2-{3-[3-amino-4-(7H-pyrrolo[2,3-d]pyrimidin-4-yl)-1H-pyrazol-1-yl]-1-(isopropylsulfonyl)azetidin-3-yl}acetonitrile crystal form III]
- crystallinity and stability (result in words) [7]: poor crystallinity and stability
- impurities generated after standing (nuclear magnetic resonance) ([7]; after standing): about 10%
